Measured values reported in PubChem BioAssay AID2060905 (Molecular Pharmacology Branch, DTP, NCI, 2025).
pIC50: −log10 of the molar value.

Tested on: 282377-053-R-J1-PDC complex spheroid viability
Experiment: Anticancer human tumor 282377-053-R-J1-PDC patient-derived colon adenocarcinoma cell line growth inhibition [RAS]
Conditions: for pIC50: curve of first compound; for viability, T/C: stronger effect = lower value
In short: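 Tumour cells grown as complex spheroids with HUVEC endothelial cells and mesenchymal stem cells, treated with RAS pathway inhibitor combinations. Each agent spans half-log steps from near clinical Cmax, or 10 microM where Cmax is unknown.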

[1] = second compound 0.00316 µM, first compound 0.000949 µM
[2] = second compound 0.00316 µM, first compound 0.003 µM
[3] = second compound 0.00316 µM, first compound 0.00949 µM
[4] = second compound 0.00316 µM, first compound 0.03 µM
[5] = second compound 0.00316 µM, first compound 0.0949 µM
[6] = second compound 0.00316 µM, first compound 0.3 µM
[7] = second compound 0.01 µM, first compound 0.000949 µM
[8] = second compound 0.01 µM, first compound 0.003 µM
[9] = second compound 0.01 µM, first compound 0.00949 µM
[10] = second compound 0.01 µM, first compound 0.03 µM
[11] = second compound 0.01 µM, first compound 0.0949 µM
[12] = second compound 0.01 µM, first compound 0.3 µM
[13] = second compound 0.0316 µM, first compound 0.000949 µM
[14] = second compound 0.0316 µM, first compound 0.003 µM
[15] = second compound 0.0316 µM, first compound 0.00949 µM
[16] = second compound 0.0316 µM, first compound 0.03 µM
[17] = second compound 0.0316 µM, first compound 0.0949 µM
[18] = second compound 0.0316 µM, first compound 0.3 µM
[19] = second compound 0.1 µM, first compound 0.000949 µM
[20] = second compound 0.1 µM, first compound 0.003 µM
[21] = second compound 0.1 µM, first compound 0.00949 µM
[22] = second compound 0.1 µM, first compound 0.03 µM
[23] = second compound 0.1 µM, first compound 0.0949 µM
[24] = second compound 0.1 µM, first compound 0.3 µM
[25] = second compound 0.316 µM, first compound 0.000949 µM
[26] = second compound 0.316 µM, first compound 0.003 µM
[27] = second compound 0.316 µM, first compound 0.00949 µM
[28] = second compound 0.316 µM, first compound 0.03 µM
[29] = second compound 0.316 µM, first compound 0.0949 µM
[30] = second compound 0.316 µM, first compound 0.3 µM
[31] = second compound 1 µM, first compound 0.000949 µM
[32] = second compound 1 µM, first compound 0.003 µM
[33] = second compound 1 µM, first compound 0.00949 µM
[34] = second compound 1 µM, first compound 0.03 µM
[35] = second compound 1 µM, first compound 0.0949 µM
[36] = second compound 1 µM, first compound 0.3 µM
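Further: spheroids exposed to agents for seven days before readout.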
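Wherever viability, T/C is given: luminescence viability as percent of DMSO vehicle control wells.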

## CC(=O)OC12COC1CC(O)C1(C)C(=O)C(O)C3=C(C)C(OC(=O)C(O)C(NC(=O)OC(C)(C)C)c4ccccc4)CC(O)(C(OC(=O)c4ccccc4)C21)C3(C)C (stereo unspecified) + C=CC(=O)N1CCN(c2nc(OCC3CCCN3C)nc3c(F)c(-c4nc(N)cc(C)c4C(F)(F)F)c(Cl)cc23)C(C)C1
Second compound 0.00316 µM
  pIC50: > 7.50
Second compound 0.01 µM
  pIC50: > 7.50
Second compound 0.0316 µM
  pIC50: > 7.50
Second compound 0.1 µM
  pIC50: > 7.50
Second compound 0.316 µM
  pIC50: > 7.50
Second compound 1 µM
  pIC50: > 7.50
Second compound 0.00316 µM, first compound 0.0316 µM
  viability, T/C: 24.3%
Second compound 0.00316 µM, first compound 0.1 µM
  viability, T/C: 19.9%
Second compound 0.00316 µM, first compound 0.316 µM
  viability, T/C: 16.3%
Second compound 0.00316 µM, first compound 1 µM
  viability, T/C: 29.4%
Second compound 0.00316 µM, first compound 3.16 µM
  viability, T/C: 39.7%
Second compound 0.00316 µM, first compound 10 µM
  viability, T/C: 54.2%
Second compound 0.01 µM, first compound 0.0316 µM
  viability, T/C: 25.9%
Second compound 0.01 µM, first compound 0.1 µM
  viability, T/C: 18%
Second compound 0.01 µM, first compound 0.316 µM
  viability, T/C: 22.7%
Second compound 0.01 µM, first compound 1 µM
  viability, T/C: 27.5%
Second compound 0.01 µM, first compound 3.16 µM
  viability, T/C: 38.6%
Second compound 0.01 µM, first compound 10 µM
  viability, T/C: 51.8%
Second compound 0.0316 µM, first compound 0.0316 µM
  viability, T/C: 22.9%
Second compound 0.0316 µM, first compound 0.1 µM
  viability, T/C: 20.5%
Second compound 0.0316 µM, first compound 0.316 µM
  viability, T/C: 18.1%
Second compound 0.0316 µM, first compound 1 µM
  viability, T/C: 26.9%
Second compound 0.0316 µM, first compound 3.16 µM
  viability, T/C: 34.2%
Second compound 0.0316 µM, first compound 10 µM
  viability, T/C: 57.8%
Second compound 0.1 µM, first compound 0.0316 µM
  viability, T/C: 24.1%
Second compound 0.1 µM, first compound 0.1 µM
  viability, T/C: 21.2%
Second compound 0.1 µM, first compound 0.316 µM
  viability, T/C: 20.1%
Second compound 0.1 µM, first compound 1 µM
  viability, T/C: 28.1%
Second compound 0.1 µM, first compound 3.16 µM
  viability, T/C: 38.4%
Second compound 0.1 µM, first compound 10 µM
  viability, T/C: 57.3%
Second compound 0.316 µM, first compound 0.0316 µM
  viability, T/C: 22%
Second compound 0.316 µM, first compound 0.1 µM
  viability, T/C: 21.6%
Second compound 0.316 µM, first compound 0.316 µM
  viability, T/C: 24.1%
Second compound 0.316 µM, first compound 1 µM
  viability, T/C: 25.5%
Second compound 0.316 µM, first compound 3.16 µM
  viability, T/C: 45.7%
Second compound 0.316 µM, first compound 10 µM
  viability, T/C: 53.6%
Second compound 1 µM, first compound 0.0316 µM
  viability, T/C: 27.8%
Second compound 1 µM, first compound 0.1 µM
  viability, T/C: 19.3%
Second compound 1 µM, first compound 0.316 µM
  viability, T/C: 28.1%
Second compound 1 µM, first compound 1 µM
  viability, T/C: 38%
Second compound 1 µM, first compound 3.16 µM
  viability, T/C: 44%
Second compound 1 µM, first compound 10 µM
  viability, T/C: 58.6%

## CC1(C)CCC(Nc2ncc(C(F)(F)F)c(-c3c[nH]c4c(P(C)(C)=O)c(C#N)ccc34)n2)CN1 (stereo unspecified) + C=CC(=O)N1CCN(c2nc(OCC3CCCN3C)nc3c(F)c(-c4nc(N)cc(C)c4C(F)(F)F)c(Cl)cc23)C(C)C1
Second compound 0.00316 µM
  pIC50: < 6.52
Second compound 0.01 µM
  pIC50: < 6.52
Second compound 0.0316 µM
  pIC50: < 6.52
Second compound 0.1 µM
  pIC50: < 6.52
Second compound 0.316 µM
  pIC50: < 6.52
Second compound 1 µM
  pIC50: < 6.52
[1]
  viability, T/C: 114%
[2]
  viability, T/C: 120%
[3]
  viability, T/C: 79.9%
[4]
  viability, T/C: 51.3%
[5]
  viability, T/C: 61.1%
[6]
  viability, T/C: 55.6%
[7]
  viability, T/C: 123%
[8]
  viability, T/C: 88.7%
[9]
  viability, T/C: 85.1%
[10]
  viability, T/C: 64.5%
[11]
  viability, T/C: 58.8%
[12]
  viability, T/C: 56.1%
[13]
  viability, T/C: 91.7%
[14]
  viability, T/C: 90.8%
[15]
  viability, T/C: 72.3%
[16]
  viability, T/C: 59.6%
[17]
  viability, T/C: 64.8%
[18]
  viability, T/C: 56.1%
[19]
  viability, T/C: 105%
[20]
  viability, T/C: 101%
[21]
  viability, T/C: 91.3%
[22]
  viability, T/C: 66.3%
[23]
  viability, T/C: 73.1%
[24]
  viability, T/C: 61.8%
[25]
  viability, T/C: 90.2%
[26]
  viability, T/C: 102%
[27]
  viability, T/C: 87.9%
[28]
  viability, T/C: 65.1%
[29]
  viability, T/C: 58.5%
[30]
  viability, T/C: 67.1%
[31]
  viability, T/C: 92.9%
[32]
  viability, T/C: 112%
[33]
  viability, T/C: 86.8%
[34]
  viability, T/C: 61.6%
[35]
  viability, T/C: 67%
[36]
  viability, T/C: 71.8%

## CCc1c2c(nc3ccc(O)cc13)-c1cc3c(c(=O)n1C2)COC(=O)[C@]3(O)CC + C=CC(=O)N1CCN(c2nc(OCC3CCCN3C)nc3c(F)c(-c4nc(N)cc(C)c4C(F)(F)F)c(Cl)cc23)C(C)C1
Second compound 0.00316 µM
  pIC50: < 6.52
Second compound 0.01 µM
  pIC50: < 6.52
Second compound 0.0316 µM
  pIC50: < 6.52
Second compound 0.1 µM
  pIC50: < 6.52
Second compound 0.316 µM
  pIC50: < 6.52
Second compound 1 µM
  pIC50: < 6.52
[1]
  viability, T/C: 117%
[2]
  viability, T/C: 122%
[3]
  viability, T/C: 122%
[4]
  viability, T/C: 99.6%
[5]
  viability, T/C: 87.7%
[6]
  viability, T/C: 59%
[7]
  viability, T/C: 109%
[8]
  viability, T/C: 119%
[9]
  viability, T/C: 95.1%
[10]
  viability, T/C: 93.9%
[11]
  viability, T/C: 79.4%
[12]
  viability, T/C: 66.1%
[13]
  viability, T/C: 99.2%
[14]
  viability, T/C: 109%
[15]
  viability, T/C: 113%
[16]
  viability, T/C: 93.2%
[17]
  viability, T/C: 87%
[18]
  viability, T/C: 61.7%
[19]
  viability, T/C: 115%
[20]
  viability, T/C: 126%
[21]
  viability, T/C: 124%
[22]
  viability, T/C: 85.8%
[23]
  viability, T/C: 97.8%
[24]
  viability, T/C: 65.1%
[25]
  viability, T/C: 128%
[26]
  viability, T/C: 114%
[27]
  viability, T/C: 123%
[28]
  viability, T/C: 98.6%
[29]
  viability, T/C: 89.7%
[30]
  viability, T/C: 64.2%
[31]
  viability, T/C: 135%
[32]
  viability, T/C: 126%
[33]
  viability, T/C: 106%
[34]
  viability, T/C: 94.2%
[35]
  viability, T/C: 95.2%
[36]
  viability, T/C: 61.2%
